From patent US20110288176A1, “[…] ACID-CONTAINING COMPOSITION FOR PREVENTION OR TREATMENT OF […]-RELATED DISEASES AND METHOD FOR PREVENTION OR TREATMENT OF […]-RELATED DISEASES USING THE SAME” (priority 2008, published 2011)

Biological target: T1, Transglutaminase 2 (Cavia cutleri, UniProt P08587)
T1 construct: purchased Sigma-Aldrich T5398
T1 sequence (P08587 1-690): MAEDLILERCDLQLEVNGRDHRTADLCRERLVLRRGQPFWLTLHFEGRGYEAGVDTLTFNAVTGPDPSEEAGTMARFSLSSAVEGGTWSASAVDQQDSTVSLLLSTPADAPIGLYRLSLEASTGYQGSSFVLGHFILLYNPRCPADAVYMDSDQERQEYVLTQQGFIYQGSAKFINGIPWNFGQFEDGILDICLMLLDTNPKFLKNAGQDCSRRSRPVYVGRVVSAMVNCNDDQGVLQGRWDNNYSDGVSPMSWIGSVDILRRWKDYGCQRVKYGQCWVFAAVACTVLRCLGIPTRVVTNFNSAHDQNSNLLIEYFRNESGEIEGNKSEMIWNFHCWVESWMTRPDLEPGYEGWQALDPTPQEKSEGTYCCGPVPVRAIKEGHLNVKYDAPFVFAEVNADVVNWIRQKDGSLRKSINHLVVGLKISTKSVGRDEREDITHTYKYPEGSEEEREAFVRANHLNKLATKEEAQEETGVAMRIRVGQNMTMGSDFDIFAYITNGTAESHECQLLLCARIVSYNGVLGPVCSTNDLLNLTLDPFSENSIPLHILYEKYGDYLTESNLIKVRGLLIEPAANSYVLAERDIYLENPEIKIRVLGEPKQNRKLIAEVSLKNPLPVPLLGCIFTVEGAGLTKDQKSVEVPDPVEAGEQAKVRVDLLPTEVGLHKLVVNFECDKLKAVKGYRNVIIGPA
Test: In vitro assay for inhibition of transglutaminase activity ([1,4-14C]putrescine incorporation into succinylated casein)
Format: biochemical
Settings: for activity of transglutaminase, Mean: mean of three assays
Procedure: Succinylated casein was purchased from Calbiochem (Cat. No. 573464), and 1 g of the powder was dissolved in 50 ml of a reaction buffer solution containing 5 mM DTT (0.1 M Tris-acetate (pH 8.0), 10 mM CaCl2, 0.15 M NaCl, 1.0 mM EDTA). This solution was stored in a deep freezer for further use. [1,4-^14C] Putrescine dihydrochloride was purchased from GE Healthcare (Cat. No. CFA301), and the stock solution was diluted with distilled water to yield a radiological dose of 5 μCi/ml. Transglutaminase 2 was purchased from Sigma-Aldrich (Cat. No. T5398), and diluted with distilled water to yield a final concentration of 1 unit/ml.
450 μl of succinylated casein solution and 50 μl of [1,4-^14C] putrescine dihydrochloride solution were mixed together to prepare a substrate solution. […] 500 μl of the substrate solution β and 100 μl of sample solution were mixed well, and the mixture was incubated at 37° C. for 2 hrs, before termination with 4.5 ml of cold (4° C.) 7.5% TCA. The final solution was stored at 4° C. for 1 hr. The TCA-protein precipitates were filtered through a GF/glass fiber filter, washed with 25 ml of cold 5% TCA, and dried.

[1] = 5 μM ethacrynic acid, relative to DMSO control (=1.0000)
[2] = 10 μM ethacrynic acid, relative to DMSO control (=1.0000)
[3] = 25 μM ethacrynic acid, relative to DMSO control (=1.0000)
[4] = 50 μM ethacrynic acid, relative to DMSO control (=1.0000)

C=C(CC)C(=O)c1ccc(OCC(=O)O)c(Cl)c1Cl [ethacrynic acid, 2-[2,3-dichloro-4-(2-methylidenebuanoyl)phenoxy]acetic acid]
activity of transglutaminase, Mean [1]: 0.4796 | activity of transglutaminase, Assay 1 (5 μM ethacrynic acid, radioactivity of cross-linked protein relative to DMSO control (=1.0000)): 0.5667 | activity of transglutaminase, Assay 2 [1]: 0.4572 | activity of transglutaminase, Assay 3 [1]: 0.4148 | activity of transglutaminase, Mean [2]: 0.3752 | activity of transglutaminase, Assay 1 [2]: 0.4319 | activity of transglutaminase, Assay 2 [2]: 0.3654 | activity of transglutaminase, Assay 3 [2]: 0.3281 | activity of transglutaminase, Mean [3]: 0.1935 | activity of transglutaminase, Assay 1 [3]: 0.2337 | activity of transglutaminase, Assay 2 [3]: 0.1812 | activity of transglutaminase, Assay 3 [3]: 0.1656 | activity of transglutaminase, Mean [4]: 0.0736 | activity of transglutaminase, Assay 1 [4]: 0.0763 | activity of transglutaminase, Assay 2 [4]: 0.0799 | activity of transglutaminase, Assay 3 [4]: 0.0645 | inhibition of transglutaminase activity (in words) (FIG. 1): inhibited in an ethacrynic acid concentration-dependent manner
